Laboratory results published in paper PMC12346692, “SUL-150 Limits Vascular Remodeling and Ventricular Failure in Pulmonary Arterial Hypertension” (International Journal of Molecular Sciences, 2025).

Assays:
pulmonary artery rings [1] = test: Ex vivo myography of pulmonary artery rings, acute SUL-150 pre-incubation, phenylephrine-induced vasoconstriction; parameters: species or system rat; settings: vehicle pre-incubation; for EC50: Rattus norvegicus
Protocol: The fourth-degree branching intralobar pulmonary arteries were carefully dissected under a Leica S4E stereomicroscope as described before. Arterial ring segments (2 mm length) were mounted in a Mulvany-type wire myograph system (model #610M, Danish Myo Technology, Aarhus, Denmark) using Ø40 µm steel wire. Rings were preserved in myography chambers filled with aerated Krebs buffer (pH 7.4) at 37 °C. After 20 min equilibration, rings were stretched to 1.8 kPa using the DMT Normalization Procedure and allowed to equilibrate for an additional 20 min. Analogue–digital signal conversion was performed using PowerLab 8/30, and a myogram was recorded in PowerLab Chart v 5.3 (AD Instruments, Oxford, UK). To assess the acute effects of SUL-150 on vasoconstriction, arterial rings were pre-constricted with 60 mM KCl and, following washout and stabilization, incubated with vehicle (0.1% DMSO) or SUL-150 (10^−4 M) for 20 min. Next, constriction responses to phenylephrine (phenylephrine, Sigma-Aldrich, St. Louis, MO, USA) were recorded in the dose range of 3 × 10^−9 to 3 × 10^−5 M. To assess the chronic effects of SUL-150 treatment, a similar protocol was followed, leaving out the preincubation with vehicle or SUL-150. Isometric responses were calculated as % of maximal KCl-induced constriction, and dose–response curves were recorded to determine the efficacy (Emax) and potency (EC50) of phenylephrine to induce vasoconstriction.

pulmonary artery rings [2] = test: Ex vivo myography of pulmonary artery rings after chronic SUL-150 administration, phenylephrine-induced vasoconstriction; type: in vivo, rat; settings: for EC50: Rattus norvegicus, 840 h
[3] = tested on: neonatal rat cardiomyocytes; test: In vitro hypertrophy reporter assay in phenylephrine-treated cardiomyocytes; type: cell-based; settings: vehicle pre-incubation, phenylephrine 24 h
Protocol: Cultures of neonatal rat cardiomyocytes were prepared from 1–3-day-old Wistar rats and adenovirally transformed with hypertrophy reporter construct as described elsewhere. Cardiomyocytes were pre-incubated with SUL-150 (3 × 10^−5 M) or vehicle for 30 min and subsequently stimulated with phenylephrine in the dose range of 10^−8 to 10^−4 M for 24 h. Cells were lysed in passive lysis buffer (Promega, Madison, WI, USA), and […] intensity of the lysate was recorded in an EnVision 2102 plate reader (Perkin Elmer, Waltham, MA, USA).

[4] = pulmonary artery rings of PAH rats
[5] = pulmonary artery rings of sham rats
[6] = rings of sham control rats (day 35, chronic study)
[7] = rings of vehicle-treated PAH rats (day 35, chronic study)

EC50 (pulmonary artery rings [1]; [4]): 1.08 µM
EC50 (pulmonary artery rings [1]; [5]): 0.174 µM
EC50 (pulmonary artery rings [2]; [6]): 0.0898 µM
EC50 (pulmonary artery rings [2]; [7]): 1.24 µM
Compound: CNC[C@H](O)c1cccc(O)c1 [phenylephrine]
Emax of phenylephrine-induced vasoconstriction (pulmonary artery rings [1]; [4]): 43.4 % of max
Emax of phenylephrine-induced vasoconstriction (pulmonary artery rings [1]; [5]): 34.7 % of max
Emax of phenylephrine-induced vasoconstriction (pulmonary artery rings [2]; [6]): 33.0 ± 2.3 % of max
Emax of phenylephrine-induced vasoconstriction (pulmonary artery rings [2]; [7]): 71.9 ± 9.2 % of max
EC50 ([3]; Rattus norvegicus, Cardiomyocyte): 1.52 µM
Emax of phenylephrine in hypertrophy reporter [3]: 3.93 RFU
